Laboratory results: patent US10683293B2, “Optionally fused heterocyclyl-substituted derivatives of pyrimidine useful for the treatment of inflammatory, metabolic, oncologic and autoimmune diseases” (NUEVOLUTION A/S, priority 2014, dated 2020)

How the values were obtained:
[1] = target: T1, human RORγt (Ligand Binding Domain) (Homo sapiens, UniProt P51449); test: Fluorescence Polarization (FP) Assay; settings: 100 nM human RORγt LBD, 25 nM TAMRA probe, values are activity range bounds
T1 construct: purchased Crelux (Planegg, Germany) batch no PC5032-1
T1 sequence (P51449 269-508 limits assumed): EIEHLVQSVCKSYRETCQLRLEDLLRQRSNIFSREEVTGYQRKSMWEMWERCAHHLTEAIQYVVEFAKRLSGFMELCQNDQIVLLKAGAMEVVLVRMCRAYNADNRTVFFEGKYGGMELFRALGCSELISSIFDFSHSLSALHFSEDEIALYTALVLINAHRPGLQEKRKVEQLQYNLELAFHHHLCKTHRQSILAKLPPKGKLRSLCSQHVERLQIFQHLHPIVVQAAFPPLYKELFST
Outline: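 In vitro fluorescence polarization binding assay on the RORγt ligand-binding pocket. A TAMRA-labelled RORγt ligand probe (MW 910 g/mol) was used, with DMSO as negative control.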

[2] = target: T2, ligand binding domain of human RORγ (Homo sapiens, UniProt P51449); test: RORγ Reporter Assay (Gal4); assay type: cell-based; settings: for inhibition at 1 µM: HEK-293T, 1 μM test compound, HEK293t RORγ reporter cells, 24 hour, read-out: Gal4 activity range @ 1 μM (% inhibition); for Gal4 activity range @ 0.1 μM (% inhibition): RORγ Reporter Assay (Gal4), HEK293t reporter cells, compound at 0.1 μM, values are activity range bounds
T2 construct: host or cells: HEK293t
T2 sequence (P51449 269-508 limits assumed): T1 sequence (P51449 269-508 limits assumed)
Procedure: The activity of the compounds was evaluated using a Fluorescence Polarization (FP) Assay and, RORγ Reporter assay (also referred to as Gal4 assay). The FP assay is an in vitro assay monitoring binding within the ligand binding pocket. The RORγ and the Th17 assays (another suitable assay) are both cell-based assays monitoring functional activity of the compound assayed.
RORγ Reporter Assay (Gal4)
Cell-based RORγ functional assays were performed using a commercially available assay product (INDIGO Biosciences, State College, Pa., USA; product # IB04001). The RORγ reporter cells are HEK293t cells transfected with one vector that provides high level constitutive expression of a hybrid protein comprised of the yeast Gal4-DNA binding domain fused to the ligand binding domain of human RORγ, and a second vector comprising the firefly luciferase cDNA functionally linked to the upstream activation sequence (UAS) of yeast Gal4. A suspension of RORγ Reporter Cells was prepared using the protocol and culture medium provided in the kit product, and 100 μl of the Reporter Cell suspension was then dispensed into wells of a white, collagen-treated, 96-well assay plate. Concentrated stocks of test compounds were prepared in DMSO, then further diluted using media provided in the kit to generate ‘2×-concentration’ treatment media. 100 μl of medium for each respective treatment concentration dispensed into triplicate assay wells, thereby combining with the reporter cells. All media formulations contained 10% charcoal stripped Fetal Bovine Serum, but are otherwise proprietary to INDIGO Biosciences. Final treatment concentrations for each test compound were 1,000 nM and 100 nM, each with 0.1% residual DMSO. Separate control treatments were media supplemented with vehicle only (0.1% DMSO) to determine the constitutive level of RORγ activity in the reporter cells, and the reference inverse-agonist ursolic acid (f.c. 6,000 nM to 8.2 nM in 3-fold decrements) to establish a positive control inverse-agonist dose response. Assay plates were placed in a 37° C., 5% CO2, 85% humidity incubator for 24 hour. Treatment media were then discarded, 100 μl of luciferase detection reagent was added to each well, and relative light units (RLUs) were quantified from each assay well using a plate reading luminometer. Values of average RLU+/−standard deviation were computed for all treatment sets, followed by the calculations of fold-reduction: [Average RLUVehicle/Average RLUTest Cmpd]. Percent-reduction of RORγ activity in response to respective test compound treatments was calculated: [100*(1−[Ave RLUTest Cmpd/Ave RLUVehicle)] where the theoretical minimum reduction (0% reduction) derives from Vehicle treatment only, no treatment compound. In some aspects it may be of interest to provide compounds with selective modulation of RORγ for example compounds that are selective to RORγ over RORα, compounds that are selective for RORγ versus RORPβ, and compounds that are selective for RORγ versus BOTH RORα and RORPβ. It may also be of interest to provide compounds that are selective for RORγ versus further nuclear hormone receptors such as CAR1, FXR, GR, LXRα, LXRβ, PPARα, PXR, RARα, RXRα, TRα, VDR. It is apparent to those skilled in the art that these nuclear hormone receptors are merely examples, and that selectivity against other nuclear receptors may also be of interest. It may for example be of interest to provide compounds that modulate RORγ and one or more further nuclear hormone receptors, as well as compounds that modulate both RORγ and RORα, or RORγ and RORβ. It may also be of interest to provide compounds that modulate RORγ and BOTH RORα and RORP, as well as compounds that modulate both RORγ and one or more further nuclear hormone receptors such as CAR1, FXR, GR, LXRα, LXRβ, PPARα, PXR, RARα, RXRα, TRα, VDR. It is apparent to those skilled in the art that these nuclear hormone receptors are merely examples, and that modulation of even other nuclear receptors may also be of interest. […]

IC50 [1] [nM] | inhibition at 1 µM [2] [%] | Gal4 activity range @ 0.1 μM (% inhibition) [2] [% inhibition] | SMILES
< 2000 | > 50 | >20 | CN(Cc1ccc(OC(F)(F)F)cc1)c1ncnc(NCc2ccc(CC(N)=O)cc2)c1F [Example A20, 2-[4-[[[5-fluoro-6-[methyl-[[4-(trifluoromethoxy)phenyl]methyl]amino]pyrimidin-4-yl]amino]methyl]phenyl]acetamide]
< 500 | > 80 | >50 | CCOc1ccc(CN(c2ncnc(NCc3ccc(CC(N)=O)cc3)c2F)C2CC2)cc1 [Example A54, 2-[4-[[[6-[cyclopropyl-[(4-ethoxyphenyl)methyl]amino]-5-fluoro-pyrimidin-4-yl]amino]methyl]phenyl]acetamide]
< 500 | > 80 | >80 | OCC1(Cn2ccc3c(N(Cc4ccc(C(F)(F)F)cc4)C4CC4)ncnc32)COC1 [Example A56, [3-[[4-[cyclopropyl-[[4-(trifluoromethyl)phenyl]methyl]amino]pyrrolo[2,3-d]pyrimidin-7-yl]methyl]oxetan-3-yl]methanol]
< 500 | > 80 | >50 | O=S(=O)(N[C@H]1CC[C@H](CNc2ncnc(N(Cc3ccc(C(F)(F)F)cc3)C3CC3)c2F)CC1)C(F)(F)F [Example A57, N-[4-[[[6-[cyclopropyl-[[4-(trifluoromethyl)phenyl]methyl]amino]-5-fluoro-pyrimidin-4-yl]amino]methyl]cyclohexyl]-1,1,1-trifluoro-methanesulfonamide]
< 500 | > 80 | >80 | CS(=O)(=O)Nc1ccc(CNc2ncnc(N(Cc3ccc(C(F)(F)F)cc3)C3CC3)c2F)cc1 [Example A59, N-[4-[[[6-[cyclopropyl-[[4-(trifluoromethyl)phenyl]methyl]amino]-5-fluoro-pyrimidin-4-yl]amino]methyl]phenyl]methane-sulfonamide]
< 500 | > 80 | >80 | N#CC[C@H]1CC[C@H](CNc2ncnc(N(Cc3ccc(C(F)(F)F)cc3)C3CC3)c2F)CC1 [Example A62, 2-[4-[[[6-[cyclopropyl-[[4-(trifluoromethyl)phenyl]methyl]amino]-5-fluoro-pyrimidin-4-yl]amino]methyl]cyclohexyl] acetonitrile]

Further lines, the compound ahead of its results:

SMILES | IC50 [1] [nM] | inhibition at 1 µM [2] [%] | Gal4 activity range @ 0.1 μM (% inhibition) [2] [% inhibition]
NC(=O)Cc1ccc(CNc2ncnc(N(C3CC3)C(c3ccc(C(F)(F)F)cc3)C3CCC3)c2F)cc1 (centres unmarked) [Example A17, 2-[4-[[[6-[[cyclobutyl-[4-(trifluoromethyl)phenyl]methyl]-cyclopropyl-amino]-5-fluoro-pyrimidin-4-yl]amino]methyl]phenyl]acetamide] | < 2000 | > 50 | >20
NC(=O)Cc1ccc(CNc2ncnc(N(Cc3ccc(C(F)(F)F)cc3)CC3CC3)c2F)cc1 [Example A18, 2-[4-[[[6-[cyclopropylmethyl-[[4-(trifluoromethyl)phenyl]methyl]amino]-5-fluoro-pyrimidin-4-yl]amino]methyl]phenyl]acetamide] | < 500 | > 80 | >50
CN(Cc1ccc(C(F)(F)F)cc1)c1ncnc(NCc2ccc(CC(N)=O)cc2)c1F [Example A19, 2-[4-[[[5-fluoro-6-[methyl-[[4-(trifluoromethyl)phenyl]methyl]amino]pyrimidin-4-yl]amino]methyl]phenyl]acetamide] | < 500 | > 80 | >20
NC(=O)Cc1ccc(CNc2ncnc(N(Cc3ccccc3)C3CC3)c2F)cc1 [Example A42, 2-[4-[[[6-[benzyl(cyclopropyl)amino]-5-fluoro-pyrimidin-4-yl]amino]methyl]phenyl]acetamide] | < 500 | > 50 | >20
CN(Cc1ccc(-n2cccn2)cc1)c1ncnc(NCc2ccc(CC(N)=O)cc2)c1F [Example A52, 2-[4-[[[5-fluoro-6-[methyl-[(4-pyrazol-1-ylphenyl)methyl]amino]pyrimidin-4-yl]amino]methyl]phenyl]acetamide] | < 500 | > 50 | >0
CC(C)c1ccc(CN(c2ncnc(NCc3ccc(CC(N)=O)cc3)c2F)C2CC2)cc1 [Example A53, 2-[4-[[[6-[cyclopropyl-[(4-isopropylphenyl)methyl]amino]-5-fluoro-pyrimidin-4-yl]amino]methyl]phenyl]acetamide] | < 500 | > 80 | >80
COc1cccc(CN(c2ncnc(NCc3ccc(CC(N)=O)cc3)c2F)C2CC2)c1 [Example A55, 2-[4-[[[6-[cyclopropyl-[(3-methoxyphenyl)methyl]amino]-5-fluoro-pyrimidin-4-yl]amino]methyl]phenyl]acetamide] | < 500 | > 0 | 
CN(Cc1cccc(-n2cccn2)c1)c1ncnc(NCc2ccc(CC(N)=O)cc2)c1F [Example A58, 2-[4-[[[5-fluoro-6-[methyl-[(3-pyrazol-1-ylphenyl)methyl]amino]pyrimidin-4-yl]amino]methyl]phenyl]acetamide] | < 500 | > 80 | >20
O=S(=O)(Nc1ccc(CNc2ncnc(N(Cc3ccc(C(F)(F)F)cc3)C3CC3)c2F)cc1)C(F)(F)F [Example A60, N-[4-[[[6-[cyclopropyl-[[4-(trifluoromethyl)phenyl]methyl]amino]-5-fluoro-pyrimidin-4-yl]amino]methyl]phenyl]-1,1,1-trifluoro-methanesulfonamide] | < 500 | > 80 | >0
Fc1c(NC[C@H]2CC[C@H](Cc3nnn[nH]3)CC2)ncnc1N(Cc1ccc(C(F)(F)F)cc1)C1CC1 [Example A61, N4-cyclopropyl-5-fluoro-N6-[[4-(1H-tetrazol-5-ylmethyl)cyclohexyl]methyl]-N4-[[4-(trifluoromethyl)phenyl]methyl] pyrimidine-4,6-diamine] | < 500 | > 80 | >20
CS(=O)(=O)NCC1(CNc2ncnc(N(Cc3ccc(C(F)(F)F)cc3)C3CC3)c2F)CCOCC1 [Example A63, N-[[4-[[[6-[cyclopropyl-[[4-(trifluoromethyl)phenyl]methyl]amino]-5-fluoro-pyrimidin-4-yl]amino]methyl]tetrahydropyran-4-yl]methyl]methanesulfonamide] | < 500 | > 80 | >80
